# Assay results as given in patent US10844058B2, “Valbenazine salts and polymorphs thereof” (Neurocrine Biosciences, Inc., priority 2015, dated 2020).
# Where two headings read alike, the source gives them in different places.
# Assays:
# Format in all cases: physicochemical
# [1] = Solubility of Form I in organic solvents by HPLC (Example 4); details: 22 °C, thermodynamic from solid
# Method: (§1) The vials were shaken. After 1 hr, a sample (˜0.5 ml) was removed via syringe, and filtered through a syringe filter (0.2 micron) into a second vial. 200 μl of each solution was then transferred into an HPLC vial and made up to 1 ml by adding 800 μl of diluent. These samples were analyzed directly by HPLC, and the response was outside the linearity range. Therefore a second dilution was performed, taking 0.1 ml of each sample and making up to 2 ml with diluent. The samples were re-analyzed by HPLC. Then after shaking the suspensions for 18 hours in total, a second sample was taken as above. All samples were then diluted and analyzed by HPLC, as above. The temperature was noted (22° C.), and no gelling was observed.
# The above procedure was repeated but using 8 different organic solvents in place of the aqueous media (analysis only after 18 hrs). Solvents used were acetonitrile, diethyl ether, ethanol, ethyl acetate, isopropanol, methanol, heptane and THF. All solvents gave suspensions at 100 mg/ml, except methanol which dissolved at 100 mg in 0.3 ml. […] These experiments were sampled once after 18 hours of slurrying.
# [2] = Solubility of Formula I Form I in solvents, gravimetric analysis of mother liquors (Example 1); details: organic solvent or mixture, thermodynamic from solid
# Method: The solubility was calculated by gravimetric analysis after evaporation of the mother liquors collected.
# [3] = Gravimetric vapour sorption (GVS)
# Method: The Gravimetric sorption isotherms were obtained using a Hiden IGASorp moisture sorption analyser, controlled by CFRSorp software. The sample temperature was maintained at 25° C. by a Huber re-circulating water bath. The humidity was controlled by mixing streams of dry and wet nitrogen, with a total flow rate of 250 ml/min. The relative humidity (RH) was measured by a calibrated Vaisala RH probe (dynamic range of 0-95% RH), located near the sample. The weight change, (mass relaxation) of the sample as a function of % RH was constantly monitored by the microbalance (accuracy 0.001 mg). Typically 10-20 mg of sample was placed in a tared mesh stainless steel basket at room temperature. The sample was loaded and unloaded at 40% RH and 25° C. (typical room conditions). The standard isotherm was performed at 25° C. at 10% RH intervals over a 0-90% RH range.
# [4] = Solubility of Form I in aqueous media by HPLC (Example 4); details: thermodynamic from solid, 22° C.
# Method: as §1
# [5] = Thermodynamic aqueous solubility; details: water, 25 °C, water, thermodynamic from solid, water, 25° C., 24 hours; at the pH of the next column; read-out: Aqueous solubility mg/mL free form
# Method: The suspension was equilibrated at 25° C. for 24 hours then the pH was measured. The suspension was then filtered through a glass fibre C filter. […] Different volumes of the standard, diluted and undiluted sample solutions were injected.
# [6] = Long-term and accelerated stability studies of Form I (Example 6)
# Method: The storage conditions include the long-term storage condition of 25±2° C./60±5% RH, the intermediate storage condition of 30±2° C./65±5% RH, and the accelerated storage condition of 40±±2° C./75±±5% RH.
# [7] = Stability to humidity on storage (form by XRPD)
# [8] = aqueous media, aqueous buffer, Aqueous pH 6.8
# [9] = aqueous media, simulated gastric fluid, Aqueous pH 1.2
# [10] = aqueous medium, aqueous buffer, Aqueous pH 4
# [11] = aqueous medium, aqueous buffer, Aqueous pH 5
compound,measurement,setting,value
"COc1cc2c(cc1OC)[C@H]1C[C@@H](OC(=O)[C@@H](N)C(C)C)[C@H](CC(C)C)CN1CC2.Cc1ccc(S(=O)(=O)O)cc1.Cc1ccc(S(=O)(=O)O)cc1 [Form I, (S)-(2R,3R,11bR)-3-isobutyl-9,10-dimethoxy-2,3,4,6,7,11b-hexahydro-1H-pyrido[2,1-a]isoquinolin-2-yl 2-amino-3-methylbutanoate di(4-methylbenzenesulfonate)]",solubility at 18 h,"[1]; organic solvent or mixture, Acetonitrile",1.36 mg/mL
same,solubility at 18 h,"[1]; organic solvent or mixture, Diethyl ether",0.01 mg/mL
same,solubility at 18 h,"[1]; organic solvent or mixture, Ethanol",35.5 mg/mL
same,solubility at 18 h,"[1]; organic solvent or mixture, Ethyl acetate",0.04 mg/mL
same,solubility at 18 h,"[1]; organic solvent or mixture, Heptane",0.003 mg/mL
same,solubility at 18 h,"[1]; organic solvent or mixture, Isopropanol",1.15 mg/mL
same,solubility at 18 h,"[1]; organic solvent or mixture, Methanol",481 mg/mL
same,solubility at 18 h,"[1]; organic solvent or mixture, THF",0.05 mg/mL
same,solubility at 18 h,[1]; Water,28.2 mg/mL
same,solubility,"[2]; 55 °C, MeOH (boiling point 65), 10° C. below reflux, read-out: Solubility at high temperature",> 250 mg/mL
same,solubility,"[2]; 56 °C, THF (boiling point 66), 10° C. below reflux, read-out: Solubility at high temperature",6 mg/mL
same,solubility,"[2]; 67 °C, Ethyl Acetate (boiling point 77), 10° C. below reflux, read-out: Solubility at high temperature",2 mg/mL
same,solubility,"[2]; 68 °C, EtOH (boiling point 78), 10° C. below reflux, read-out: Solubility at high temperature",212 mg/mL
same,solubility,"[2]; 70 °C, MEK (boiling point 80), 10° C. below reflux, read-out: Solubility at high temperature",4 mg/mL
same,solubility,"[2]; 71 °C, Acetonitrile (boiling point 81), 10° C. below reflux, read-out: Solubility at high temperature",48 mg/mL
same,solubility,"[2]; 79 °C, IPA (boiling point 89), 10° C. below reflux, read-out: Solubility at high temperature",22 mg/mL
same,solubility,"[2]; 79 °C, Isopropyl Acetate (boiling point 89), 10° C. below reflux, read-out: Solubility at high temperature",4 mg/mL
same,solubility,"[2]; 88 °C, 1-propanol (boiling point 98), 10° C. below reflux, read-out: Solubility at high temperature",160 mg/mL
same,solubility,"[2]; 107 °C, MIBK (boiling point 117), 10° C. below reflux, read-out: Solubility at high temperature",5 mg/mL
same,solubility,"[2]; 1-propanol, 5° C., read-out: Solubility at 5° C. temperature",8 mg/mL
same,solubility,"[2]; Acetone, 5° C., read-out: Solubility at 5° C. temperature",5 mg/mL
same,solubility,"[2]; Acetonitrile, 5° C., read-out: Solubility at 5° C. temperature",17 mg/mL
same,solubility,"[2]; EtOH, 5° C., read-out: Solubility at 5° C. temperature",24 mg/mL
same,solubility,"[2]; Ethyl Acetate, 5° C., read-out: Solubility at 5° C. temperature",1 mg/mL
same,solubility,"[2]; IPA, 5° C., read-out: Solubility at 5° C. temperature",5 mg/mL
same,solubility,"[2]; Isopropyl Acetate, 5° C., read-out: Solubility at 5° C. temperature",4 mg/mL
same,solubility,"[2]; MEK, 5° C., read-out: Solubility at 5° C. temperature",3 mg/mL
same,solubility,"[2]; MIBK, 5° C., read-out: Solubility at 5° C. temperature",6 mg/mL
same,solubility,"[2]; MeOH, 5° C., read-out: Solubility at 5° C. temperature",> 250 mg/mL
same,solubility,"[2]; THF, 5° C., read-out: Solubility at 5° C. temperature",4 mg/mL
same,Stability to humidity GVS uptake,[3]; 25° C.,1.0%
same,GVS mass increase,"[3]; relative humidity from about 0% to about 95%, di(4-methylbenzenesulfonate)",less than 1%
same,solubility at 1 h,"[4]; aqueous media, aqueous buffer, Aqueous pH 3",28.4 mg/mL
same,solubility at 1 h,[4]; [8],34 mg/mL
same,solubility at 18 h,[4]; [8],35.4 mg/mL
same,solubility at 1 h,[4]; [9],31.6 mg/mL
same,solubility at 18 h,[4]; [9],33.2 mg/mL
same,solubility at 18 h,"[4]; aqueous medium, aqueous buffer, Aqueous pH 3",28 mg/mL
same,solubility at 1 h,[4]; [10],28.1 mg/mL
same,solubility at 18 h,[4]; [10],27.8 mg/mL
same,solubility at 1 h,[4]; [11],18.6 mg/mL
same,solubility at 18 h,[4]; [11],27.9 mg/mL
same,solubility at 24 h,[5],15 mg/mL
same,Stability on storage,[6]; about 25° C. and about 60% relative humidity for about 24 months,stable
same,Stability on storage,[6]; about 40° C. and about 75% relative humidity for about 6 months,stable
same,Stability on storage,"[6]; accelerated storage condition 40° C./75% RH, 3 months",chemical and physical stability
same,Stability on storage,"[6]; long-term storage condition 25° C./60% RH, up to 3 months",chemical and physical stability
same,Stability to humidity 25° C./92% RH,[7]; 25° C./92% RH,unchanged
same,Stability to humidity 40° C./75% RH,[7]; 40° C./75% RH,unchanged
